# Read-outs that look alike come from different tables or passages of the source.
# Experiments:
# human KHK-C = human KHK-C (Homo sapiens (Human), UniProt P50053); assay: KHK Biochemical Assay (IC50), ADP-Glo, KHK-C; settings: average of at least two separate assays
# Summary of the method: (§1)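 Luminescent ADP-Glo read-out of ADP made by His-tagged KHK (BL21 (DE3) expression, Ni-NTA). Enzyme and compound sat together 30 min before ATP/fructose addition, then reacted 4 h at RT in Hepes pH 7.4 buffer with KCl, MgCl2, Triton-X. Quench 1 h, detection 1 h.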
# HepG2 cells = assay: F1P Cell-Based Assay (EC50), 13C6-fructose-1-phosphate in HepG2 cells (cell culture medium or 50% human plasma)
# human KHK-A = human KHK-A (Homo sapiens (Human), UniProt P50053); assay: KHK Biochemical Assay (IC50), ADP-Glo, KHK-A; settings: average of at least two separate assays
# Summary of the method: as §1
# human OATP1B1 = human OATP1B1 (Homo sapiens (Human), UniProt Q9Y6L6); assay: In Vitro Inhibition Assessment with Human OATP1B1 Transporter; format: in vitro ADME; settings: HEK293-OATP1B1 cells, probe substrate pravastatin
# Method: In Vitro Inhibition Assessment with Human OATP1B1 and OATP1B3 Transporters Assay Protocol
# The purpose of this assay was to assess the inhibition potential of test article (TA) toward human OATP1B1 and OATP1B3 transporters in vitro using cell lines transfected with the individual transporters. The assays used clinically relevant probe substrate pravastatin and a known positive control inhibitor rifampicin. HEK293 mock, HEK293-OATP1B1, and HEK293-OATP1B3 transfected cells were seeded onto CellCoat Poly-D-Lysine coated 96 well black cell culture plates with clear bottoms (Greiner bio-one, Cat. #655946) at a density of 70,000 cells/well and cultured to confluency overnight. Seeding media used was Dulbecco's Modification of Eagle's Medium (DMEM—with GlutaMAX high glucose; Gibco, Cat #: 10569-010) supplemented with 10% fetal bovine serum, 0.1 mM non-essential amino acids, 100 U/mL penicillin, and 100 μg/mL streptomycin. On assay day, media were removed from the assay plates and cells were washed with Hanks' Balanced Salt Solution (HBSS Buffer) (Corning, Cat. #21-023-CV). All TAs and reference inhibitor were serially diluted in DMSO to create spiking solutions at concentrations of 250-fold of final assay concentrations (final DMSO content 0.4%). Cells were preincubated with HBSS buffer containing test compounds for 15 minutes. After the removal of HBSS buffer, dose solution containing TA or reference inhibitor and probe substrate were added to the HEK293-OATP1B1, HEK-293-OATP1B3 and its associated mock cell plate, respectively. The co-incubation period of TAs with the corresponding probe substrate for all plates was 5 minutes. An aliquot of the dose solution was removed from the HEK293 mock cell plates and analysed for dose recovery. Cells were then washed three times with ice cold HBSS buffer and then immediately extracted with methanol:water (70:30 v:v) containing internal standard labetolol (30 nM). The supernatants were evaporated to dryness on injection plates and reconstituted in 80% water containing 20% acetonitrile and 0.1% formic acid for analysis by liquid chromatography with tandem mass spectrometry (LC-MS-MS).
# Fractional transport activities were calculated from the equation: Activity %=(A−B)/(C−D)×100
# • A: translocated amount of substrate in the presence of TA on transfected cells • B: translocated amount of substrate in the presence of TA on Mock cells • C: translocated amount of substrate in the presence of solvent on transfected cells • D: translocated amount of substrate in the presence of solvent on Mock cells
# GraphPad Prism 7.0 (GraphPad Software Inc., San Diego, CA) was used for curve fitting and determination of reaction parameters. In uptake transporter inhibition assays, the IC50 (μM) was calculated, where applicable. IC50 was defined as the concentration of TA required to inhibit maximal activity by 50%.
# [1] = molecular target: KHK-C expressed in NRK-52E cells (Homo sapiens (Human), UniProt P50053); assay: KHK-C Cell-based Assay (EC50), NRK CTG, fructose-mediated ATP-depletion
# [2] = Homo sapiens, HepG2, HepG2 cells, 50% human plasma, read-out: F1P 50% HP EC50
# [3] = Homo sapiens, HepG2, read-out: F1P 10% FBS EC50, HepG2 cells, cell culture medium (10% FBS)
# human OATP1B1, sequence (Q9Y6L6 whole entry): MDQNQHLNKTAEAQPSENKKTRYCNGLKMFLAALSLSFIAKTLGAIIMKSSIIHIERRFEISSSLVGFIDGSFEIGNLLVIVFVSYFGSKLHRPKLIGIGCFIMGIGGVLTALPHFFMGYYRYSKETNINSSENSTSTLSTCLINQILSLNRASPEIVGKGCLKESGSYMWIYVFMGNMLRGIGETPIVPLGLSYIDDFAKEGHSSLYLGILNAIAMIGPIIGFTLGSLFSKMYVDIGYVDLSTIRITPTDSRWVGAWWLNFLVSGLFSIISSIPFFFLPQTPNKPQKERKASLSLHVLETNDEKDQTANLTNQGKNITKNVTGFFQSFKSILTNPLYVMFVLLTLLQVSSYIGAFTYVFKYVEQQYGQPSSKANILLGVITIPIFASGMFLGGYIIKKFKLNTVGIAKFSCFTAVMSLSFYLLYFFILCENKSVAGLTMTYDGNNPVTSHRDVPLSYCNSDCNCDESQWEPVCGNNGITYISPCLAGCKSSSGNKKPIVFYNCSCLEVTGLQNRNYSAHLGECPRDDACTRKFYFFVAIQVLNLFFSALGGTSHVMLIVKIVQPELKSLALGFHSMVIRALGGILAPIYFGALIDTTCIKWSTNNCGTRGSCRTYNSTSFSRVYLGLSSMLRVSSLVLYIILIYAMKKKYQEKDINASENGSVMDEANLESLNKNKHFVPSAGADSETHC
# KHK-C expressed in NRK-52E cells, sequence (P50053 whole entry): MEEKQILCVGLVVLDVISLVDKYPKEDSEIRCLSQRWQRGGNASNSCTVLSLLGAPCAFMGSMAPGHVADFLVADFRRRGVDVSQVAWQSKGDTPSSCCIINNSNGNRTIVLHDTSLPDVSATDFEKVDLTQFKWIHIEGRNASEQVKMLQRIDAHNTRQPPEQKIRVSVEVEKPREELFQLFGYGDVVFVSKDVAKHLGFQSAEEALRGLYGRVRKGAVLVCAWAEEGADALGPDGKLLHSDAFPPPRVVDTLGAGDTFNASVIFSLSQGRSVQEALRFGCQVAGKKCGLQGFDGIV
# human KHK-C, sequence (P50053 whole entry): as above
# human KHK-A, sequence (P50053 other isoform, or with tags, fused parts or gaps): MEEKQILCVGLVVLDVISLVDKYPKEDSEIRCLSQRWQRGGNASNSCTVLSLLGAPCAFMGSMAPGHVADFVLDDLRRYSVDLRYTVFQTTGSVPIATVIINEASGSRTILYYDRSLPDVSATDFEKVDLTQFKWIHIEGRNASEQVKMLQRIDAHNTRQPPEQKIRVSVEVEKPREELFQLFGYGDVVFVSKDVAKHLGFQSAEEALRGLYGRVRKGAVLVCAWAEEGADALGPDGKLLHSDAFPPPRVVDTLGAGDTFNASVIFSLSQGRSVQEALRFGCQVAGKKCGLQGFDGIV
Compound,IC50 (human KHK-C; ADP-Glo) [nM],EC50 (HepG2 cells; [2]) [nM],EC50 (HepG2 cells; [3]) [nM],IC50 (human KHK-A; ADP-Glo) [nM],IC50 (human OATP1B1) [nM],EC50 [1] [nM],IC50 (human KHK-C) [nM],IC50 (human KHK-A) [nM],"EC50 (HepG2 cells; HepG2 cells, 50% human plasma, read-out: F1P 50% HP EC50) [nM]","EC50 (HepG2 cells; read-out: F1P 10% FBS EC50, HepG2 cells, cell culture medium (10% FBS)) [nM]","EC50 ([1]; read-out: NRK CTG EC50, NRK-52E cells, Cell-Titer Glo, 25 mM fructose) [nM]"
"C[C@H]1[C@H](O)CN1c1nc(-c2cccc(CNS(C)(=O)=O)c2)c2c(n1)C(F)(F)CC2 [Example 324, N-(3-(7,7-difluoro-2-((2S,3R)-3-hydroxy-2-methylazetidin-1-yl)-6,7-dihydro-5H-cyclopenta[d]pyrimidin-4-yl)benzyl)methanesulfonamide]",8.3,59.9,19,6.6,5800,72.3,–,–,–,–,–
"C[C@H]1[C@H](O)CN1c1nc(-c2cccc(CN(C)S(C)(=O)=O)c2)c2c(n1)C(F)(F)CC2 [Example 462, N-(3-(7,7-difluoro-2-((2S,3R)-3-hydroxy-2-methylazetidin-1-yl)-6,7-dihydro-5H-cyclopenta[d]pyrimidin-4-yl)benzyl)-N-methylmethanesulfonamide]",–,33.7,9.6,–,2760,9.2,3.2,–,–,–,–
"CCOc1cc(-c2nc(N3C[C@@H](O)[C@@H]3C)nc3c2CCC3(F)F)ccc1C(N)=O [Example 170, 4-(7,7-difluoro-2-((2S,3R)-3-hydroxy-2-methylazetidin-1-yl)-6,7-dihydro-5H-cyclopenta[d]pyrimidin-4-yl)-2-ethoxybenzamide]",11.2,80.3,30.2,–,892,46.1,–,–,–,–,–
"C[C@H]1CCN1c1nc2c(c(-c3ccc4nc(N)[nH]c(=O)c4c3)n1)CCC2 [Example 463, (S)-2-amino-6-(2-(2-methylazetidin-1-yl)-6,7-dihydro-5H-cyclopenta[d]pyrimidin-4-yl)quinazolin-4(3H)-one]",–,46.3,7.3,–,1360,150,3.9,–,–,–,–
"C[C@H]1[C@H](O)CN1c1nc(-c2ccc3c(c2)OC[C@@]32COC(=O)N2)c2c(n1)C(F)(F)CC2 (single isomer, unassigned) [Example 483]",–,18.4,5.3,–,17400,5.4,0.2,4.6,–,–,–
"C[C@H]1[C@H](O)CN1c1nc2c(c(-c3ccc(C(N)=O)cc3)n1)CCC2 [Example 197, 4-[2-[(2S,3R)-3-hydroxy-2-methyl-azetidin-1-yl]-6,7-dihydro-5H-cyclopenta[d]pyrimidin-4-yl]benzamide]",51.6,191,120,65.5,5920,379,–,–,–,–,–
C[C@H]1[C@H](O)CN1c1nc(-c2ccc3c(c2)OCC3NS(C)(=O)=O)c2c(n1)C(F)(F)CC2 (mixture of isomers) [Example 465],–,33.5,15.4,–,4580,14.9,1.4,–,–,–,–
"C[C@H]1[C@H](O)CN1c1nc(-c2ccc3c(c2)CC[C@@]32COC(=O)N2)c2c(n1)C(F)(F)CC2 (single isomer, unassigned) [Example 476]",–,37.5,23.5,–,5980,9.5,0.2,10.9,–,–,–
"C[C@H]1[C@H](O)CN1c1nc(-c2cc(F)c3c(c2)OCCNC3=O)c2c(n1)C(F)(F)CC2 [Example 746, 8-[7,7-difluoro-2-[(2S,3R)-3-hydroxy-2-methyl-azetidin-1-yl]-5,6-dihydrocyclopenta[d]pyrimidin-4-yl]-6-fluoro-3,4-dihydro-2H-1,4-benzoxazepin-5-one]",–,76.8,49.2,–,1070,108,7.4,46.7,–,–,–
"COc1cc(-c2nc(N3C[C@@H](O)[C@@H]3C)nc3c2CCC3(F)F)ccc1C(N)=O [Example 177, 4-(7,7-difluoro-2-((2S,3R)-3-hydroxy-2-methylazetidin-1-yl)-6,7-dihydro-5H-cyclopenta[d]pyrimidin-4-yl)-2-methoxybenzamide]",14.3,66.6,28.4,–,3710,88.6,–,–,–,–,–
"C[C@H]1CCN1c1nc(-c2ccc3c(c2)CCNC3)c2c(n1)C(F)(F)CC2 [Example 642, 6-[7,7-difluoro-2-[(2S)-2-methylazetidin-1-yl]-5,6-dihydrocyclopenta[d]pyrimidin-4-yl]-1,2,3,4-tetrahydroisoquinoline]",–,2.4,1.1,–,22500,4.1,0.9,–,–,–,–
"C[C@H]1[C@H](O)CN1c1nc(-c2ccc(C(N)=O)cc2)c2c(n1)C(F)(F)CC2 [Example 129, 4-(7,7-difluoro-2-((2S,3R)-3-hydroxy-2-methylazetidin-1-yl)-6,7-dihydro-5H-cyclopenta[d]pyrimidin-4-yl)benzamide]",6.4,36.7,18.8,14,13200,80.8,–,–,–,–,–
"C[C@H]1CCN1c1nc(-c2ccc(C3(N)CS(=O)(=O)C3)cc2)c2c(n1)C(F)(F)CC2 [Example 769, (S)-3-amino-3-(4-(7,7-difluoro-2-(2-methylazetidin-1-yl)-6,7-dihydro-5H-cyclopenta[d]pyrimidin-4-yl)phenyl)thietane 1,1-dioxide]",–,18.4,6.7,–,19100,3.1,0.8,–,–,–,–
"C[C@H]1[C@H](O)CN1c1nc(-c2ccc3c(c2)OC[C@@]32COCC(=O)N2)c2c(n1)C(F)(F)CC2 (single isomer, unassigned) [Example 499]",–,–,–,–,24300,–,0.2,2.4,6.4,3,1.6
"C[C@H]1CCN1c1nc2c(c(-c3cccc([C@H]4C[C@@H]4C(=O)O)c3)n1)CCC2 (single isomer, unassigned) [Example 89]",3.3,311,35.7,6,160,37,–,–,–,–,–
"C[C@H]1CCN1c1nc2c(c(-c3cc4cc[nH]c(=O)c4s3)n1)CCC2 [Example 392, 2-[2-[(2S)-2-methylazetidin-1-yl]-6,7-dihydro-5H-cyclopenta[d]pyrimidin-4-yl]-6H-thieno[2,3-c]pyridin-7-one]",1.5,85.1,10.9,–,100,3,–,–,–,–,–
C[C@H]1[C@H](O)CN1c1nc(-c2cccc(S(C)(=N)=O)c2)c2c(n1)C(F)(F)CC2 (some centres unmarked) [Example 464],–,55.1,45.8,–,> 40000,55,15.7,–,–,–,–
"C[C@H]1[C@H](O)CN1c1nc(-c2ccc3c(c2)CCCNC3=O)c2c(n1)C(F)(F)CC2 [Example 178, 7-(7,7-difluoro-2-((2S,3R)-3-hydroxy-2-methylazetidin-1-yl)-6,7-dihydro-5H-cyclopenta[d]pyrimidin-4-yl)-2,3,4,5-tetrahydro-1H-benzo[c]azepin-1-one]",5.4,41,22.1,–,1350,27.4,–,–,–,–,–
